This is an account of results in patent publication US20070053869A1, “Formulation and method for enhancement of gastrointestinal absorption of pharmaceutical agents” (priority 2005, published 2007).

Read-outs that look alike come from different tables or passages of the source.

In data set [1] the target is T1, ABCG2 (Homo sapiens, UniProt Q9UNQ0).
T1 sequence (Q9UNQ0 1-655): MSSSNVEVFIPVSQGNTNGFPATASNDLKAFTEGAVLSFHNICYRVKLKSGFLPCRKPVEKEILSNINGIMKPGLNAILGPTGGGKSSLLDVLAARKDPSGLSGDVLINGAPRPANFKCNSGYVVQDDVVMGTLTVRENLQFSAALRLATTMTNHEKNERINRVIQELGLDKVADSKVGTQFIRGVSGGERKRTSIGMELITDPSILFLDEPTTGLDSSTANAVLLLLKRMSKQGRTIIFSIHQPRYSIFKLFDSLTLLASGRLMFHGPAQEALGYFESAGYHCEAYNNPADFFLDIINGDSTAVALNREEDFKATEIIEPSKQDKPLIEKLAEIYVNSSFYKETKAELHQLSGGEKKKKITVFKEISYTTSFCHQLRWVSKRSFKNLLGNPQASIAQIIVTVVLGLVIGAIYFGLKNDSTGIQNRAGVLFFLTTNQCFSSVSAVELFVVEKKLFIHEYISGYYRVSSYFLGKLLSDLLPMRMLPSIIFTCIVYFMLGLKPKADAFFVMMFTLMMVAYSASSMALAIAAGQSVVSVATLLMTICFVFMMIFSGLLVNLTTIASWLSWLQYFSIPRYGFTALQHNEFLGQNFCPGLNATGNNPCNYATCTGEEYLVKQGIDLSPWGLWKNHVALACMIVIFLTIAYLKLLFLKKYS
Kind of data set: [3H]-estrone-3-sulfate (E1S) uptake into ABCG2-expressing membrane vesicles from HEK293 cells.
Protocol: (§6) Measurement of the uptake of [^3H]-estrone-3-sulfate (E1S) was carried out for 11 pharmaceutical excipients at or near their reported critical micelle concentrations using ABCG2-expressing membrane vesicles.
(§7) Eleven of the pharmaceutical excipients of Table 2 were examined for effect on ABCG2 function at their cmc. The inhibitory mechanism of ABCG2 inhibition by pharmaceutical excipients was also investigated. […] The uptake of E1S into these membrane vesicles was examined in the presence and absence of the first eleven excipients of Table 2.
(§8) The IC50 values for these excipients, and their mode of inhibitory action for the function of ABCG2 were evaluated and determined.
(§9) Km and Vmax were calculated for ABCG2 inhibition by excipients at a concentration near the IC50 values. Then, their values were compared to those obtained in the absence of excipient. […] Results are the means±SE (n=3).

Data set [2] has as its target P-gp (Homo sapiens, UniProt P08183). Nature of the data set: mitoxantrone accumulation in P-gp MDCK-II cells. From the text:
Moreover, to investigate the inhibitory effect of excipients on P-gp, we also performed an intracellular accumulation study for 15 excipients using P-gp MDCK-II cells. Mitoxantrone was again used as the substrate.

The test system of data set [3] is GFP MDCK-II cells. Kind of data set: [3H]-mitoxantrone accumulation in GFP-transduced MDCK-II control cells. The format is cell-based.
The conditions of data set [4]: mouse, in vivo. The method, then:
(§1) Topotecan (1 mg/kg) was administered orally to wild-type and female bcrp1 KO mice. We then determined the plasma concentration of topotecan as a function of time (FIG. 9).
(§2) We then determined the plasma concentration of topotecan as a function of time.
(§3) Topotecan was also administered intravenously, for comparison. […] We then determined the plasma concentration of topotecan as a function of time.
(§4) The dose of topotecan was 1000 μg/kg of body weight.
(§5) The product of Fa and Fg is presystemic bioavailability for drugs not further metabolized in the liver. […] We determined Fa*Fg using Eh=CLTOT,BLOOD/Qh where Qh is 5.4 (L/h/kg). The fold change relative to wild type control is also presented.

The conditions of data set [5]: mouse, in vivo. On the procedure: as §1, §2, §3, §4, §5
This is another data set of the same source.

Data set [6] is described as follows: ratio of topotecan concentration in blood to plasma. Conditions: mouse, blood and plasma; mice; read-out: RB, ratio of topotecan concentration in blood to plasma.
Data set [7] concerns the target T1, ABCG2. Nature of the data set: [3H]-mitoxantrone accumulation in ABCG2-transduced MDCK-II cells (BCRP MDCK-II). The method, then: Methods: For constructing MDCK-II cells expressing human ABCG2 or green fluorescent protein (GFP), MDCK-II cells were infected with recombinant adenoviruses containing human ABCG2 or GFP cDNA at 48 h prior to the experiments. ABCG2 or GFP-transduced cells were preincubated in prewarmed transport buffer for 15 min. Subsequently, [^3H]-mitoxantrone (MTX) was added in transport buffer to apical compartments. Accumulation of radiolabeled substrates was allowed for 2 h at 37° C. with or without an appropriate concentration of pharmaceutical excipients, 20 μM of GF120918 or 5 μM of PSC833. The reactions were arrested by washing cells with ice-cold transport buffer. Cells were solubilized and then the lysates were transferred to a liquid scintillation counter for measurement of radioactivity.
To abolish the influence of endogenous P-gp, PSC833 (P-gp inhibitor) was added during the incubation for 2 h, except that in the samples treated with GF120918 (a shared ABCG2 and P-gp inhibitor) no PSC833 was added.
The inhibitory effect of excipients on ABCG2 was further characterized in an intracellular accumulation study. MDCK-II cells overexpressing ABCG2 (BCRP MDCK-II) and, as controls, MDCK-II cells overexpressing green fluorescence protein (GFP) (GFP MDCK-II) were prepared. Mitoxantrone was used as the substrate. Intracellular mitoxantrone accumulation in the presence or absence of excipients was determined.
To discover the excipients that can inhibit ABCG2, we performed an intracellular accumulation study using BCRP MDCK-II and GFP MDCK-II cells in the absence or presence of excipients. Mitoxantrone was used as the substrate. To abolish the effect of endogenous P-gp, this experiment was performed in the presence of PSC833. […] All of the excipients were used below their cmc, because above their cmc, excipients form micelles that can interact with the substrate, and as a consequence the effective concentration of mitoxantrone in the experimental medium can decrease.

For data set [8] the following is noted: reported in literature; cited from earlier work.
Data set [9] in a line: critical micelle concentration by surface tension in a transport buffer. The format is physicochemical. The text has this:
The critical micelle concentration can be measured by a surface tension method,-e.g. using a Tensiometer, or other methods known in the art. Any suitable method known in the art can be used to measure the cmc. In a particular embodiment ASTM D 971 REV A is used.
Therefore, we determined the cmc of the 11 excipients used above, and others, by measuring surface tension in a transport buffer. […] The concentration beyond which there was no further change in surface tension was taken as the cmc.

In data set [10] the target is T1, ABCG2.
Protocol: as §6, §7, §8, §9
The subject of data set [11] is GFP/MDCK II cells. Nature of the data set: intracellular ATP level, luciferin/luciferase assay, GFP/MDCK II cells. The format is cell-based. Conditions: sodium azide 100 mM; P85 copolymer 20 μM; polysorbate 20 250 μM; polyoxyl 35 castor oil 50 μM; sorbitan monolaurate 100 μM; lauryl PEG ether 100 μM; n=3.

P-gp, sequence (P08183 whole entry): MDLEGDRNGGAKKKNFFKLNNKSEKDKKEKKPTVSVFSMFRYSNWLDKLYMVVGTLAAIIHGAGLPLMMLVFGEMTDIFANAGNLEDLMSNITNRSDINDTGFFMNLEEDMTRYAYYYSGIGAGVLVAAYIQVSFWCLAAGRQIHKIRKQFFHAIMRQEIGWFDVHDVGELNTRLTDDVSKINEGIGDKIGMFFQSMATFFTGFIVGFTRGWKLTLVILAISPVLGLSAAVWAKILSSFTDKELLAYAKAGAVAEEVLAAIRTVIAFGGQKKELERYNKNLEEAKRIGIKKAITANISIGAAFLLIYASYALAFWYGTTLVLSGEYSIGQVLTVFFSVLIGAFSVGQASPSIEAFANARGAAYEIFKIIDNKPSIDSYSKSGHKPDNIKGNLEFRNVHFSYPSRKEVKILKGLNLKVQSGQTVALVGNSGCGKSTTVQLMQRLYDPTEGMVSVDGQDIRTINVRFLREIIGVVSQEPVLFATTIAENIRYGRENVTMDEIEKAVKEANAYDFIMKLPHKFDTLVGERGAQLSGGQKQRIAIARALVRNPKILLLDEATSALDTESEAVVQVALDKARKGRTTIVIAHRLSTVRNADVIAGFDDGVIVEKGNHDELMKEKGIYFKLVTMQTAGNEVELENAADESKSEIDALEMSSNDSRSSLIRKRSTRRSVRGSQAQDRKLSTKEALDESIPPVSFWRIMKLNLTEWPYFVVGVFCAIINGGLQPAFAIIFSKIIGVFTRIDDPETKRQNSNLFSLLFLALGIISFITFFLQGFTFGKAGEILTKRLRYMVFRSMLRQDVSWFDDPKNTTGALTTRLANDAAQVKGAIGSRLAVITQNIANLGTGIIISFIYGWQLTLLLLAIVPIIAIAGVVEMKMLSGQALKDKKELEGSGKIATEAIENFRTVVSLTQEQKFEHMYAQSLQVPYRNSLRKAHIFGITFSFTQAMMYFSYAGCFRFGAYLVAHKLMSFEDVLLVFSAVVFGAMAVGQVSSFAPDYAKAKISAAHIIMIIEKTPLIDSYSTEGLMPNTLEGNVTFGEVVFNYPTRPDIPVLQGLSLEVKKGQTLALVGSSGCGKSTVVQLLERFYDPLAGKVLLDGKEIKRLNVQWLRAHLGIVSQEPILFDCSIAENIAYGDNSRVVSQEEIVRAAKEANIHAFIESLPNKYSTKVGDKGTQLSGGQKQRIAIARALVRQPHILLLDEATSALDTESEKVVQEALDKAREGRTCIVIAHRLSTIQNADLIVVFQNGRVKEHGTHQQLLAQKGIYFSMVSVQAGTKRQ

One may read the IC50 as the point on the concentration scale where inhibition reaches its midpoint. Read a high IC50 as lower potency. In the case of `CCCCCCCCCCCCOCCOCCOCCOCCO` [Polyoxyl 4 lauryl ether, Lauryl polyethylene glycol ether], the IC50 in data set [1] was determined as 77.5 ± 4.1 µM.

Turning to `C/C=C/C[C@@H](C)C(=O)[C@H]1C(=O)N[C@@H](C(C)C)C(=O)N(C)CC(=O)N(C)[C@@H](CC(C)C)C(=O)N[C@@H](C(C)C)C(=O)N(C)[C@@H](CC(C)C)C(=O)N[C@@H](C)C(=O)N[C@H](C)C(=O)N(C)[C@@H](CC(C)C)C(=O)N(C)[C@@H](CC(C)C)C(=O)N(C)[C@@H](C(C)C)C(=O)N1C` [PSC833], the “mitoxantrone accumulation in P-gp MDCK-II” value in data set [2] (1 hr (printed 'I hr')) is “markedly increased”. The “mitoxantrone accumulation in P-gp MDCK-II cells (in words)” value in data set [2] (Example 7) is listed as “markedly reversed”. The “initial accumulation of mitoxantrone in P-gp MDCK-II cells” value in data set [2] (initial 5 min) is on record as “significantly increased”. Also, the “mitoxantrone accumulation in GFP MDCK-II cells (in words)” value in data set [3] (Example 7, P-gp study, endogenous P-gp) is recorded as “reversed”. In data set [3] (initial time course), the “initial accumulation of mitoxantrone in GFP MDCK-II cells” value is “slightly increased”.

Take `CC[C@@]1(O)C(=O)OCc2c1cc1n(c2=O)Cc2cc3c(CN(C)C)c(O)ccc3nc2-1` [topotecan]: in data set [4], the Eh of topotecan turned out to be 0.37, the F of topotecan is on record as 0.12, the “Fa × Fg of topotecan” value came out at 0.19 and the Fh of topotecan is 0.63. Moreover, the “CLtot,plasma of topotecan” value in data set [4] (po, 1000 ug/kg) was found to be 333 mL/min/kg. In [5], the Eh of topotecan is on record as 0.22, the F of topotecan amounted to 0.27, the “Fa × Fg of topotecan” value was 0.35 and the Fh of topotecan worked out at 0.78. For the same compound, the “Fold Change of Fa × Fg relative to wild type control” value in [5] was 1.8. Also, in data set [5] (po, 1000 ug/kg), the “CLtot,plasma of topotecan” value amounted to 86.7 mL/min/kg. The blood plasma ratio in data set [6] is 1.2.

Regarding Polyoxyethylenesorbitan monolaurate, the “mitoxantrone accumulation in P-gp MDCK-II cells (in words)” value in data set [2] was “increased”.

On to Polyoxyethylenesorbitan monooleate, for which the “mitoxantrone accumulation in P-gp MDCK-II cells (in words)” value in data set [2] was “increased”. The “inhibition of ABCG2 in the intact cell assay” value in [7] is reported as “did not inhibit ABCG2”.

With Sorbitan monopalmitate, the Reference cmc in data set [8] is 200 µM.

Regarding `COc1cc2c(cc1OC)CN(CCc1ccc(NC(=O)c3cccc4c(=O)c5cccc(OC)c5[nH]c34)cc1)CC2` [GF120918], the “accumulation of MTX in GFP-transduced cells (in words)” value in data set [3] (Example 1, 20 μM GF120918, 2 h) was “no consistent effect”. The “initial accumulation of mitoxantrone, BCRP versus GFP MDCK-II cells” value in data set [7] is listed as “no significant difference”. Also, the “accumulation of MTX in ABCG2-transduced cells compared to control” value in data set [7] (human, 2 h, 20 μM) is 1.4 times.

In the case of `CCCCCCCCCCCCO[C@@H]1O[C@H](CO)[C@@H](O[C@H]2O[C@H](CO)[C@@H](O)[C@H](O)[C@H]2O)[C@H](O)[C@H]1O` [LM, n-dodecyl-β-D-maltopyranoside], the Reference cmc in [8] was 170 µM. In data set [9], this compound displayed a Measured cmc of 688 µM. The “effect on ABCG2-mediated E1S uptake into vesicles (in words)” value in data set [10] is given as “less or no effect”.

Consider Sorbitan monooleate, for which the Reference cmc in data set [8] was 100 µM.

Turning to Sorbitan monolaurate, the Reference cmc in data set [8] is 100 µM. Further, the “mitoxantrone accumulation in P-gp MDCK-II cells (in words)” value in [2] (Example 7) is recorded as “increased”. Further, the “intracellular ATP, GFP/MDCK II” value in [11] is on record as 132.8 ± 3.6 nmol/mg protein. In addition, in data set [7] (Example 7, excipients below their cmc, in the presence of PSC833), the “mitoxantrone accumulation in BCRP MDCK-II cells (in words)” value is “significantly increased”.

On to “Polyoxyethyleneglyceroltriricinoleate 35 [Polyoxyl 35 castor oil]”, for which the “mitoxantrone accumulation in P-gp MDCK-II cells (in words)” value in data set [2] was “increased”.

Regarding “Polyoxyethyleneglyceroltrihydroxystearate [Polyoxyl 40 hydrogenated castor oil]”, the “mitoxantrone accumulation in P-gp MDCK-II cells (in words)” value in data set [2] was “increased”.
